The record followed here is ChEMBL document CHEMBL5131399, “Broadening antifungal spectrum and improving metabolic stablity based on a scaffold strategy: Design, synthesis, and evaluation of novel 4-phenyl-4,5-dihydrooxazole derivatives as potent fungistatic and fungicidal reagents” (Eur J Med Chem, 2022).

One may read the MIC as the lowest concentration found to suppress growth. What is called IC50 is the concentration that gives 50% inhibition. What is called MFC is the smallest concentration meeting the test's criterion for killing the fungus.

≈ marks a conversion by molar mass, not a printed value.

For the first data set, the system named is Candida albicans. The experiment in a line: Antifungal activity against Candida albicans ATCC SC5314 assessed as fungal growth inhibition by NCCLS protocol based method.
Conditions: not given
The format is functional.
As for `Fc1ccc(C2(Cn3ccnc3)COC(c3ccc(-c4ccccc4)s3)=N2)cc1` (stereo unspecified), the minimum inhibitory concentration (MIC) was 0.06 µg/mL (≈ 0.149 µM).
Still for that read-out and setting: to `Cc1ccc(C2(Cn3ccnc3)COC(c3ccc(-c4ccccc4)s3)=N2)cc1` (stereo unspecified) belongs 0.125 µg/mL (≈ 0.313 µM).

For another data set, the system named is Pichia kudriavzevii. The experiment in a line: Antifungal activity against Candida krusei GIM2.1 assessed as fungal growth inhibition by NCCLS protocol based method. Type of data set: functional.
Conditions: not given
For `Fc1ccc(C2(Cn3ccnc3)COC(c3ccc(-c4ccccc4)s3)=N2)cc1` (stereo unspecified), the MIC was 0.125 µg/mL (≈ 0.31 µM).
On the same count and under the same terms, under `Cc1ccc(C2(Cn3ccnc3)COC(c3ccc(-c4ccccc4)s3)=N2)cc1` (stereo unspecified) stands greater than 64 µg/mL.

The subject of the next data set is Aspergillus fumigatus. The experiment in a line: Antifungal activity against Aspergillus fumigatus CGMCC3.7795 assessed as fungal growth inhibition by NCCLS protocol based method. Type of data set: functional.
Conditions: not given
In the case of `Fc1ccc(C2(Cn3ccnc3)COC(c3ccc(-c4ccccc4)s3)=N2)cc1` (stereo unspecified), the MIC is 4 µg/mL (≈ 9.91 µM).
Regarding `Cc1ccc(C2(Cn3ccnc3)COC(c3ccc(-c4ccccc4)s3)=N2)cc1` (stereo unspecified), the MIC was 16 µg/mL (≈ 40 µM).

Test system in the next data set: not listed separately
The experiment in a line: Cytotoxicity against human HEK293T cells assessed as inhibition of cell growth incubated for 4 hrs by MTT assay. The format is toxicity, cell-based, HEK-293T.
Conditions: not given
Regarding `Fc1ccc(C2(Cn3ccnc3)COC(c3ccc(-c4ccccc4)s3)=N2)cc1` (stereo unspecified), the IC50 at 4 h was found to be 14.2 µM.

A further data set has as its system Candida albicans. The experiment in a line: Antifungal activity against FLC-resistant Candida albicans 100 assessed as fungal growth inhibition by NCCLS protocol based method. Type of data set: functional.
Conditions: not given
Consider `Fc1ccc(C2(Cn3ccnc3)COC(c3ccc(-c4ccccc4)s3)=N2)cc1` (stereo unspecified), for which the MIC worked out at 0.5 µg/mL (≈ 1.24 µM).
Still for that read-out and setting: to `Cc1ccc(C2(Cn3ccnc3)COC(c3ccc(-c4ccccc4)s3)=N2)cc1` (stereo unspecified) belongs 0.5 µg/mL (≈ 1.25 µM).

The next data set concerns Candida tropicalis. The experiment in a line: Antifungal activity against Candida tropicalis CGMCC 2.3739 assessed as fungal growth inhibition by NCCLS protocol based method. Type of data set: functional.
Conditions: not given
As to `Fc1ccc(C2(Cn3ccnc3)COC(c3ccc(-c4ccccc4)s3)=N2)cc1` (stereo unspecified), the MIC is 0.06 µg/mL (≈ 0.149 µM).
Still for that read-out and setting: to `Cc1ccc(C2(Cn3ccnc3)COC(c3ccc(-c4ccccc4)s3)=N2)cc1` (stereo unspecified) belongs 8 µg/mL (≈ 20 µM).

The next data set deals with A549. The experiment in a line: Cytotoxicity against human A549 cells assessed as inhibition of cell growth incubated for 4 hrs by MTT assay. The settings on record: A549, 4 h. The format is functional, cell-based. On the technique in general: Formazan colour is commonly taken as a measure of viable cells.
Take `Fc1ccc(C2(Cn3ccnc3)COC(c3ccc(-c4ccccc4)s3)=N2)cc1` (stereo unspecified): the IC50 was greater than 50 µM.

The test system of another data set is Candida albicans. Nature of the data set: Antifungal activity against FLC-resistant Candida albicans 632 assessed as fungal growth inhibition by NCCLS protocol based method.
Conditions: not given
Type of data set: functional.
As to `Fc1ccc(C2(Cn3ccnc3)COC(c3ccc(-c4ccccc4)s3)=N2)cc1` (stereo unspecified), the MIC is 1 µg/mL (≈ 2.48 µM).
`Cc1ccc(C2(Cn3ccnc3)COC(c3ccc(-c4ccccc4)s3)=N2)cc1` (stereo unspecified): the MIC was 16 µg/mL (≈ 40 µM).

The subject of the next data set is Candida albicans. The experiment in a line: Fungicidal activity against Candida albicans CPCC400616 assessed as minimum fungicidal concentration incubated for 48 hrs. The format is functional.
Conditions: not given
In the case of `Fc1ccc(C2(Cn3ccnc3)COC(c3ccc(-c4ccccc4)s3)=N2)cc1` (stereo unspecified), the MFC worked out at 0.5 µg/mL (≈ 1.24 µM).

A further data set concerns Candida albicans. Nature of the data set: Antifungal activity against FLC-resistant Candida albicans 311 assessed as fungal growth inhibition by NCCLS protocol based method. The format is functional.
Conditions: not given
On to `Fc1ccc(C2(Cn3ccnc3)COC(c3ccc(-c4ccccc4)s3)=N2)cc1` (stereo unspecified), for which the MIC is 1 µg/mL (≈ 2.48 µM).
In the case of `Cc1ccc(C2(Cn3ccnc3)COC(c3ccc(-c4ccccc4)s3)=N2)cc1` (stereo unspecified), the MIC is 8 µg/mL (≈ 20 µM).

The test system of another data set is Candida albicans. The experiment in a line: Antifungal activity against FLC-resistant Candida albicans 904 assessed as fungal growth inhibition by NCCLS protocol based method. Type of data set: functional.
Conditions: not given
On to `Fc1ccc(C2(Cn3ccnc3)COC(c3ccc(-c4ccccc4)s3)=N2)cc1` (stereo unspecified), for which the MIC was found to be 0.25 µg/mL (≈ 0.62 µM).
The same measure, in the same setting: to `Cc1ccc(C2(Cn3ccnc3)COC(c3ccc(-c4ccccc4)s3)=N2)cc1` (stereo unspecified) belongs 4 µg/mL (≈ 10 µM).

The subject of a further data set is Candida albicans. The experiment in a line: Antifungal activity against FLC-resistant Candida albicans 901 assessed as fungal growth inhibition by NCCLS protocol based method. Type of data set: functional.
Conditions: not given
As for `Fc1ccc(C2(Cn3ccnc3)COC(c3ccc(-c4ccccc4)s3)=N2)cc1` (stereo unspecified), the MIC was found to be 0.25 µg/mL (≈ 0.62 µM).
Same read-out and setting: to `Cc1ccc(C2(Cn3ccnc3)COC(c3ccc(-c4ccccc4)s3)=N2)cc1` (stereo unspecified) belongs 2 µg/mL (≈ 5.01 µM).

The subject of another data set is Candida albicans. The experiment in a line: Antibiofilm activity against FLC-resistant Candida albicans CPCC400616 assessed as assessed as inhibition of biofilm formation measured at 24 hrs by XTT reduction assay. The format is functional.
Conditions: not given
With `Fc1ccc(C2(Cn3ccnc3)COC(c3ccc(-c4ccccc4)s3)=N2)cc1` (stereo unspecified), the MIC50 was 16 µg/mL (≈ 39.7 µM).

For the next data set, the system named is HepG2. The experiment in a line: Cytotoxicity against human HepG2 cells assessed as inhibition of cell growth incubated for 4 hrs by MTT assay. The format is functional, cell-based. The settings on record: HepG2, 4 h.
Take `Fc1ccc(C2(Cn3ccnc3)COC(c3ccc(-c4ccccc4)s3)=N2)cc1` (stereo unspecified): the IC50 came to 10.5 µM.

Another data set concerns Candida albicans. Nature of the data set: Antibiofilm activity against FLC-resistant Candida albicans CPCC400616 assessed as assessed as inhibition of biofilm formation measured at 18 hrs by XTT reduction assay. Type of data set: functional.
Conditions: not given
Consider `Fc1ccc(C2(Cn3ccnc3)COC(c3ccc(-c4ccccc4)s3)=N2)cc1` (stereo unspecified), for which the MIC50 came to 4 µg/mL (≈ 9.91 µM).

The test system of the next data set is Candida albicans. Nature of the data set: […] for fungicidal activity against Candida albicans CPCC400616. Type of data set: functional.
Conditions: not given
With `Fc1ccc(C2(Cn3ccnc3)COC(c3ccc(-c4ccccc4)s3)=N2)cc1` (stereo unspecified), the Ratio is 8.

The subject of the next data set is Candida albicans. Nature of the data set: Antibiofilm activity against FLC-resistant Candida albicans CPCC400616 assessed as assessed as inhibition of biofilm formation measured at 6 hrs by XTT reduction assay.
Conditions: not given
The format is functional.
In the case of `Fc1ccc(C2(Cn3ccnc3)COC(c3ccc(-c4ccccc4)s3)=N2)cc1` (stereo unspecified), the MIC50 is 2 µg/mL (≈ 4.96 µM).

The next data set relates to Candida albicans. Nature of the data set: Antifungal activity against Candida albicans CPCC400616 assessed as fungal growth inhibition by NCCLS protocol based method. The format is functional.
Conditions: not given
With `Fc1ccc(C2(Cn3ccnc3)COC(c3ccc(-c4ccccc4)s3)=N2)cc1` (stereo unspecified), the MIC amounted to 0.06 µg/mL (≈ 0.149 µM).
Still for that read-out and setting: to `Cc1ccc(C2(Cn3ccnc3)COC(c3ccc(-c4ccccc4)s3)=N2)cc1` (stereo unspecified) belongs 0.125 µg/mL (≈ 0.313 µM).

The next data set deals with Candida parapsilosis. The experiment in a line: Antifungal activity against Candida parapsilosis GIM2.190 assessed as fungal growth inhibition by NCCLS protocol based method. The format is functional. To be noted: Lodderomyces parapsilosis.
In the case of `Fc1ccc(C2(Cn3ccnc3)COC(c3ccc(-c4ccccc4)s3)=N2)cc1` (stereo unspecified), the MIC was 0.25 µg/mL (≈ 0.62 µM).
Still for that read-out and setting: under `Cc1ccc(C2(Cn3ccnc3)COC(c3ccc(-c4ccccc4)s3)=N2)cc1` (stereo unspecified) stands 1 µg/mL (≈ 2.5 µM).

The test system of a further data set is Candida albicans. The experiment in a line: Fungicidal activity against Candida albicans CPCC400616 assessed as minimum inhibitory concentration incubated for 48 hrs. Type of data set: functional.
Conditions: not given
Regarding `Fc1ccc(C2(Cn3ccnc3)COC(c3ccc(-c4ccccc4)s3)=N2)cc1` (stereo unspecified), the MIC is 0.06 µg/mL (≈ 0.149 µM).

The subject of a further data set is Candida albicans. The experiment in a line: Antifungal activity against FLC-resistant Candida albicans CaR assessed as fungal growth inhibition by NCCLS protocol based method. The format is functional.
Conditions: not given
Take `Fc1ccc(C2(Cn3ccnc3)COC(c3ccc(-c4ccccc4)s3)=N2)cc1` (stereo unspecified): the MIC was 1 µg/mL (≈ 2.48 µM).
The same measure, in the same setting: to `Cc1ccc(C2(Cn3ccnc3)COC(c3ccc(-c4ccccc4)s3)=N2)cc1` (stereo unspecified) belongs 2 µg/mL (≈ 5.01 µM).

A further data set concerns Cryptococcus neoformans. The experiment in a line: Antifungal activity against Cryptococcus neoformans CGMCC 2.3161 assessed as fungal growth inhibition by NCCLS protocol based method. The format is functional.
Conditions: not given
Take `Fc1ccc(C2(Cn3ccnc3)COC(c3ccc(-c4ccccc4)s3)=N2)cc1` (stereo unspecified): the MIC amounted to 0.5 µg/mL (≈ 1.24 µM).
On the same count and under the same terms, to `Cc1ccc(C2(Cn3ccnc3)COC(c3ccc(-c4ccccc4)s3)=N2)cc1` (stereo unspecified) belongs 0.25 µg/mL (≈ 0.626 µM).

Another data set concerns Candida albicans. The experiment in a line: Antifungal activity against FLC-resistant Candida albicans 103 assessed as fungal growth inhibition by NCCLS protocol based method. The format is functional.
Conditions: not given
Take `Fc1ccc(C2(Cn3ccnc3)COC(c3ccc(-c4ccccc4)s3)=N2)cc1` (stereo unspecified): the MIC came to 0.25 µg/mL (≈ 0.62 µM).
On the same count and under the same terms, under `Cc1ccc(C2(Cn3ccnc3)COC(c3ccc(-c4ccccc4)s3)=N2)cc1` (stereo unspecified) stands 4 µg/mL (≈ 10 µM).

The subject of another data set is MCF7. Nature of the data set: Cytotoxicity against human MCF7 cells assessed as inhibition of cell growth incubated for 4 hrs by MTT assay. Type of data set: functional, cell-based. The settings on record: MCF7, 4 h.
For `Fc1ccc(C2(Cn3ccnc3)COC(c3ccc(-c4ccccc4)s3)=N2)cc1` (stereo unspecified), the IC50 is greater than 50 µM.

The next data set has as its system Nakaseomyces glabratus. Nature of the data set: Antifungal activity against Candida glabrata clinical isolate assessed as fungal growth inhibition by NCCLS protocol based method. The format is functional.
Conditions: not given
With `Fc1ccc(C2(Cn3ccnc3)COC(c3ccc(-c4ccccc4)s3)=N2)cc1` (stereo unspecified), the MIC was found to be 0.125 µg/mL (≈ 0.31 µM).
On the same count and under the same terms, under `Cc1ccc(C2(Cn3ccnc3)COC(c3ccc(-c4ccccc4)s3)=N2)cc1` (stereo unspecified) stands greater than 64 µg/mL.

The next data set concerns Candida albicans. The experiment in a line: Antibiofilm activity against FLC-resistant Candida albicans CPCC400616 assessed as assessed as inhibition of biofilm formation measured at 3 hrs by XTT reduction assay.
Conditions: not given
Type of data set: functional.
`Fc1ccc(C2(Cn3ccnc3)COC(c3ccc(-c4ccccc4)s3)=N2)cc1` (stereo unspecified): the MIC50 is 0.25 µg/mL (≈ 0.62 µM).
